# Biological target: T1, human GPR120 (Homo sapiens, UniProt Q5NUL3)
# T1 construct: expressed in transfected cells; host or cells: HEK293T, transient transfection with PEI
# T1 sequence (Q5NUL3 1-361): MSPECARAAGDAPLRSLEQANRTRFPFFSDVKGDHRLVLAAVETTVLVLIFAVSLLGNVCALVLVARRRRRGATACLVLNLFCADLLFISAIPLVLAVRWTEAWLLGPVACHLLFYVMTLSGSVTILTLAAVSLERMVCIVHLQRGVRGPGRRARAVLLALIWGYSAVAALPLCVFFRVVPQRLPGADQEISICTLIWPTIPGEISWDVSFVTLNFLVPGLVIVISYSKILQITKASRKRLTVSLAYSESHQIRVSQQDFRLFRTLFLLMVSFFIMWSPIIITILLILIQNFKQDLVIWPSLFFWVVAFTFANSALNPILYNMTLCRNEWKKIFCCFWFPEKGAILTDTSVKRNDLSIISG
# Assay: Human GPR120-β Arrestin 2 BRET agonist assay
# Assay type: cell-based
# Conditions: HEK293T cells transiently co-expressing hGPR120-eYFP and β-arrestin 2-RLuc; BRET normalised to DMSO (0%) and TUG-891 (100%); read-out: hGPR120 pEC50 (converted)
# Protocol: pEC50 data was obtained by the following procedure:
# Human GPR120-β Arrestin 2 Bio-Luminescence Resonance Energy Transfer (BRET) Agonist Assay Procedure
# HEK293T cells were cultured in growth media composed of DMEM L-glutamine media supplemented with 10% (v:v) fetal bovine serum (FBS) and 1% (v:v) 10,000 units penicillin/10 mgml^−1 streptomycin at 37° C., 5% CO2. HEK293T cells transiently co-expressing human GPR120 […] and b-arrestin 2 were generated by transfection with plasmids encoding a construct of hGPR120 […] fused at its C terminal with enhanced yellow fluorescent protein (eYFP), and another encoding β-arrestin 2 fused to Renilla luciferase (RLuc), using Polyethylenimine (PEI) as the transfection reagent.
# Transfected cells were cryopreserved in batches for consistency between replicate assays. Twenty-four hours post transfection, cells were harvested with non-enzymatic cell dissociation buffer and re-suspended in DMEM medium supplemented with 10% DMSO and 10% FBS before being transferred first to −80° C. overnight and then to liquid nitrogen for long-term storage. On the day prior to the assay, cells were thawed at 37° C. and re-suspended in growth media. A 96 well white opaque bottom microtitre plate was then seeded with 40,000 cells in a volume of 100 μl growth media per well and seeded plates were then incubated overnight at 37° C., 5% CO2. On the day of the BRET experiment, cells were washed twice with BRET assay buffer (Hanks balanced salt solution (HBSS) supplemented with 10 mM HEPES (pH 7.4)), then 80 μl per well of BRET assay buffer was added before the plate was incubated for 30 minutes at 37° C., 5% CO2. Then, Renilla luciferase substrate coelenterazine h (5 μM) was added to the cells and incubated at 37° C. for 10 minutes before the addition of GPR120 agonist (TUG-891) or test compound for a further 5 minutes at 37° C.
# Bio-luminescence at λ 535 nm and λ 475 nm was then measured with a Pherastar FsX instrument, and the λ 535/λ 475 ratio of bio-luminescence was then used to calculate a BRET value. hGPR120 agonist potency values (pEC50) were calculated by normalising the BRET values to the DMSO vehicle (0% control) and TUG-891 (100% control) and then fitting the normalised data to a 3-parameter concentration-response curve.
row,Structure (SMILES),EC50 [nM]
1,"O=C(O)CCc1cc2c(cc1F)CN(c1cc(F)cc(OC3CCC3)c1)CC2 [Compound 42, 3-(2-(3-Cyclobutoxy-5-fluorophenyl)-7-fluoro-1,2,3,4-tetrahydroisoquinolin-6-yl)propanoic Acid]",316
2,"O=C(O)CCc1ccc2c(c1)CCN(c1cc(OC3CCC3)ccc1F)C2 [Compound 13, 3-(2-(5-cyclobutoxy-2-fluorophenyl)-1,2,3,4-tetrahydroisoquinolin-6-yl)propanoic acid]",20
3,"O=C(O)CCc1ccc2c(c1)CCN(c1ccnc(C3CC3)n1)C2 [Compound 18, 3-(2-(2-cyclopropylpyrimidin-4-yl)-1,2,3,4-tetrahydroisoquinolin-6-yl)propanoic acid]",25100
4,"O=C(O)CCc1ccc2c(c1)CCN(c1cccc(Oc3ccccc3)c1)C2 [Compound 20, 3-(2-(3-phenoxyphenyl)-1,2,3,4-tetrahydroisoquinolin-6-yl)propanoic acid]",25.1
5,"O=C(O)C1CC1c1ccc2c(c1)CCN(c1cccc(Oc3ccccc3)c1)C2 (single isomer, unassigned) [38 isomer 1]",50.1
6,"O=C(O)CCc1ccc2c(c1)CCN(c1cc(F)cc(-c3ccccc3)c1)C2 [Compound 24, 3-(2-(5-fluoro-[1,1′-biphenyl]-3-yl)-1,2,3,4-tetrahydroisoquinolin-6-yl)propanoic acid]",398
7,"O=C(O)C1CC1c1ccc2c(c1)CCN(c1nc(OC3CCC3)ccc1F)C2 (stereo not shown) [Compound 37, 2-(2-(6-cyclobutoxy-3-fluoropyridin-2-yl)-1,2,3,4-tetrahydroisoquinolin-6-yl)cyclopropane-1-carboxylic acid]",39.8
8,"CC(Cc1ccc2c(c1)CCN(c1cc(OC(F)(F)F)ccc1F)C2)C(=O)O (stereo not shown) [Compound 26, 3-(2-(2-Fluoro-5-(trifluoromethoxy)phenyl)-1,2,3,4-tetrahydroisoquinolin-6-yl)-2-methylpropanoic Acid]",79.4
9,"O=C(O)CCc1cc(F)c2c(c1)CCN(c1cc(OC(F)(F)F)ccc1F)C2 [Compound 40, 3-(8-fluoro-2-(2-fluoro-5-(trfluoromethoxy)phenyl)-1,2,3,4-tetrahydroisoquinolin-6-yl)propanoic acid]",31.6
10,"CC(C)Oc1cccc(N2CCc3cc(CCC(=O)O)ccc3C2)c1 [Compound 28, 3-(2-(3-Isopropoxyphenyl)-1,2,3,4-tetrahydroisoquinolin-6-yl)propanoic Acid]",501
11,"O=C(O)CCc1ccc2c(c1)CCN(c1cc(OC(F)(F)F)ccc1F)CC2 [Compound 45, 3-(3-(2-fluoro-5-(trifluoromethoxy)phenyl)-2,3,4,5-tetrahydro-1H-benzo[d]azepin-7-yl)propanoic Acid]",25.1
12,"Cc1ccc(OC2CCC2)cc1N1CCc2cc(CCC(=O)O)ccc2C1 [Compound 14, 3-(2-(5-cyclobutoxy-2-methylphenyl)-1,2,3,4-tetrahydroisoquinolin-6-yl)propanoic acid]",50.1
13,"O=C(O)CCc1ccc2c(c1)CCN(c1cccc(C(F)(F)F)c1)C2 [Compound 16, 3-(2-(3-(trifluoromethyl)phenyl)-1,2,3,4-tetrahydroisoquinolin-6-yl)propanoic acid]",501
14,"O=C(O)CCc1ccc2c(c1)CCN(c1cccc(-c3ccccc3)c1)C2 [Compound 23, 3-(2-([1,1′-biphenyl]-3-yl)-1,2,3,4-tetrahydroisoquinolin-6-yl)propanoic acid]",398
15,"O=C(O)CCc1cc(F)c2c(c1)CCN(c1cccc(Oc3ccccc3)c1)C2 [Compound 41, 3-(8-fluoro-2-(3-phenoxyphenyl)-1,2,3,4-tetrahydroisoquinolin-6-yl)propanoic acid]",31.6
16,"O=C(O)CCc1ccc2c(c1)CCN(c1nc(OC3CCC3)c(F)cc1F)C2 [Compound 44, 3-(2-(6-Cyclobutoxy-3,5-difluoropyridin-2-yl)-1,2,3,4-tetrahydroisoquinolin-6-yl)propanoic Acid]",25.1
17,"COc1cc(OC(F)(F)F)cc(N2CCc3cc(CCC(=O)O)ccc3C2)c1 [Compound 25, 3-(2-(3-methoxy-5-(trifluoromethoxy)phenyl)-1,2,3,4-tetrahydroisoquinolin-6-yl)propanoic acid]",63.1
18,"COc1cc(Cl)cc(N2CCc3ccc(CCC(=O)O)cc3C2)c1 [Compound 31, 3-(2-(3-chloro-5-methoxyphenyl)-1,2,3,4-tetrahydroisoquinolin-7-yl)propanoic acid]",2510
19,"O=C(O)C1CC1c1ccc2c(c1)CCN(c1nc(OC3CCC3)ccc1F)C2 (single isomer, unassigned) [37 Isomer 1]",63.1
20,"O=C(O)CCc1cc2c(cc1F)CN(c1cc(OC3CCC3)ccc1F)CC2 [Compound 39, 3-(2-(5-cyclobutoxy-2-fluorophenyl)-7-fluoro-1,2,3,4-tetrahydroisoquinolin-6-yl)propanoic Acid]",63.1
21,"O=C(O)CCc1ccc2c(c1)CCN(c1cc(OC3CCC3)ccc1F)CC2 [Compound 46, 3-(3-(5-cyclobutoxy-2-fluorophenyl)-2,3,4,5-tetrahydro-1H-benzo[d]azepin-7-yl)propanoic acid]",79.4
22,"O=C(O)CCc1ccc2c(c1)CCN(c1cc(Oc3ccccc3)ccc1F)CC2 [Compound 50, 3-(3-(2-fluoro-5-phenoxyphenyl)-2,3,4,5-tetrahydro-1H-benzo[d]azepin-7-yl)propanoic acid]",25.1
23,O=C(O)CCc1ccc2c(c1)CN(c1cc(OC(F)(F)F)ccc1F)CC2 [Compound 33],1260
24,"CC(C)Oc1ccc(F)c(N2CCc3ccc(CCC(=O)O)cc3CC2)c1 [Compound 48, 3-(3-(2-fluoro-5-isopropoxyphenyl)-2,3,4,5-tetrahydro-1H-benzo[d]azepin-7-yl)propanoic acid]",200
25,"O=C(O)CCc1ccc2c(c1)CCN(c1cccc(OC(F)(F)F)c1)C2 [Compound 10, 3-(2-(3-(Trifluoromethoxy)phenyl)-1,2,3,4-tetrahydroisoquinolin-6-yl)propanoic Acid]",158
